T1: Glycogen synthase (GYS1) (Homo sapiens, UniProt P13807)
T1 construct: full-length GYS1 (aa 1–737) coexpressed with GYG1 aa 294–350 (GYS1–GYG1^ΔCD); with GYG1 (aa 294–350)
T1 sequence (P13807 1-737): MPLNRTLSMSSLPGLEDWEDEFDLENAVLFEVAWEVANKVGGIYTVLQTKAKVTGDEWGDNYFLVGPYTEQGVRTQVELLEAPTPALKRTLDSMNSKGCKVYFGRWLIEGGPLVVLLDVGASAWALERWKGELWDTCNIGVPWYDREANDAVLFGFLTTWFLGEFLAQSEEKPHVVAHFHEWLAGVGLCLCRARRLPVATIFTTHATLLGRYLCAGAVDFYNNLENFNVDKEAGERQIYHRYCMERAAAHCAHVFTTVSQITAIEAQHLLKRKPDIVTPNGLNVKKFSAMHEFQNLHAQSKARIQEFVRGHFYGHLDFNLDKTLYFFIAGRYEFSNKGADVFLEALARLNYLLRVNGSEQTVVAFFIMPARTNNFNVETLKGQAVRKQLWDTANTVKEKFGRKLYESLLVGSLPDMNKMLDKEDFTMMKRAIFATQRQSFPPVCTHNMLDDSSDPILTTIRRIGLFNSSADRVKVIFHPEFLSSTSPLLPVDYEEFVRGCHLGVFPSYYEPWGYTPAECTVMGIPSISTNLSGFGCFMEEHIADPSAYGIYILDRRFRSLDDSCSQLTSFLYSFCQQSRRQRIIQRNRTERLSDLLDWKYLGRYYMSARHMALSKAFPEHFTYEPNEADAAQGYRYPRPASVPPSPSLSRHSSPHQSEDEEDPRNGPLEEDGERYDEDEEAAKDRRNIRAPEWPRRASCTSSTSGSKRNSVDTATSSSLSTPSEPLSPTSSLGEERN
T1 sequence (P46976 294-350 partner): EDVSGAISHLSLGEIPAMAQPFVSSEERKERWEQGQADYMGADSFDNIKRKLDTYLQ

T2: PTG (PPP1R3C) (Homo sapiens, UniProt Q9UQK1)
T2 construct: CBM21 domain, aa 134–259
T2 sequence (Q9UQK1 134-259): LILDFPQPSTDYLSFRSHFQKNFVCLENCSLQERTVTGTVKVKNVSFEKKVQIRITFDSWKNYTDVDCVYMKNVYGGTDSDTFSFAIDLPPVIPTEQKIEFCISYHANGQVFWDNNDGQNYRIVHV

T3: GYS1–GYG1^FL complex (full-length human GYS1 with full-length glucosylated GYG1) (human, UniProt P13807 1-737; P46976-1 1-350, heterogeneous phosphorylation | glucosylated (GYG1 is attached with a glucose chain), heterogeneous)
T3 construct: human glycogen synthase GYS1, full length; human glycogenin-1 (GYG1), isoform GN-1L, UniProt P46976-1, full length; source: Sf9 cells, coexpressed, purified (Ni-Sepharose, Superose 6, TEV treatment); not shown: His6, N-terminal, cleaved
T3 sequence (looked up) 1: T1 sequence (P13807 1-737)
T3 sequence (looked up) 2: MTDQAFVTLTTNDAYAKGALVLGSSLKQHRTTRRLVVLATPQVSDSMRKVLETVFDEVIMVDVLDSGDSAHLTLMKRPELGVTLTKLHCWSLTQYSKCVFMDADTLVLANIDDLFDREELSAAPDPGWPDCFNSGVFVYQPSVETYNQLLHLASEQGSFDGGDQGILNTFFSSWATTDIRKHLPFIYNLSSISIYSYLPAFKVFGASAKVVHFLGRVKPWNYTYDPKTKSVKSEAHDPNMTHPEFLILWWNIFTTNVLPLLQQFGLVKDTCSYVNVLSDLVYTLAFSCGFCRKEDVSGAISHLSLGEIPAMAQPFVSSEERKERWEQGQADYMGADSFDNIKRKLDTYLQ

B1: human glycogen synthase GYS1 (aa 1–737), untagged, as in the GYS1–GYG1^ΔCD complex (enzyme, UniProt P13807 1-737, looked up)
chain: T1 sequence (P13807 1-737)
modifications: multiply phosphorylated (intact mass spectrometry); phosphorylated Ser641 (site 3a) modelled in the inhibited state
notes: human glycogen synthase GYS1 (muscle isoform), amino acids 1–737, codon-optimized synthetic gene; Homotetramer (dimer of dimers) in the cryo-EM structures; source: Sf9 cells, coexpressed with His6-GST-GYG1 294–350 from a bicistronic construct, purified (Ni-Sepharose, Superose 6)
B2: human GYG1 C terminus, aa 294–350 (GYG1^ΔCD) (domain or fragment, UniProt P46976-1 294-350, looked up)
chain: T1 sequence (P46976 294-350 partner)
notes: human glycogenin-1 (GYG1), isoform GN-1L, UniProt P46976-1, amino acids 294–350, codon-optimized synthetic gene; Residues 317–349 were modelled in the cryo-EM map; The methods name MBP-His6, His6-GST and His6-GFP tags as tried; the results name His6-GST for the bicistronic constructs; also called GYG1 294–350; not shown: His6-GST, N-terminal, cleaved
B3: human PTG (PPP1R3C) aa 134–259, CBM21 domain construct, His-tagged (domain or fragment, UniProt Q9UQK1 134-259, looked up)
chain: T2 sequence (Q9UQK1 134-259)
notes: The His6-tag is TEV-cleavable but was kept: the protein was captured on Talon resin by it; also called PTG(CBM21); His-PPP1R3C; source: cultured in autoinduction Terrific Broth, purified (Ni-Sepharose, Superdex 75); not shown: His6, N-terminal, kept

Columns and labels:
[1] = target: T1, Glycogen synthase (GYS1); experiment: cryo-EM structure at […] Å with Glc6P and UDP-glc added (UDP-glc hydrolysed); assay type: binding
[2] = target: T1, Glycogen synthase (GYS1); experiment: cryo-EM structures (7Q13 […] Å; also 7Q12, 7Q0S); thermal shift titration, AC50 of PP1c-dephosphorylated GYS1–GYG1^ΔCD; assay type: binding
[3] = target: T2, PTG (PPP1R3C); experiment: thermal shift assay titration (AC50); assay type: binding
[4] = target: T2, PTG (PPP1R3C); experiment: thermal shift assay (no Kd); assay type: binding
[5] = target: the molecule itself; experiment: cryo-EM structure; GYS1–GYG1^ΔCD at 0.75 or 0.5 mg ml^-1 in 25 mM HEPES pH 7.5, 200 mM NaCl, 2.0 mM TCEP, 0.05% Tween-20; as purified (inhibited state), with 5 mM Glc6P (inhibited-like and activated states), with 5 mM Glc6P and 5 mM UDP-Glc (activated state); D2 symmetry
[6] = target: B1; experiment: as above; conditions: both partners purified
[7] = target: T3, GYS1–GYG1^FL complex (full-length human …); experiment: pull-down; His-PPP1R3C (1.0 mg ml^-1) preincubated with GYS1–GYG1 complex (0.25 mg ml^-1) or GYG1 (0.5 mg ml^-1) for 30 min at 4 °C, captured on Talon resin in 25 mM HEPES pH 7.5, 100 mM NaCl, 1 mM TCEP, 0.2% Tween-20; wash with 10 mM imidazole; SDS-PAGE, Coomassie; conditions: both partners purified

With `OC[C@H]1OC(O)[C@H](O)[C@@H](O)[C@@H]1O` (stereo partly shown) [GLC, glucose] the “cryo-EM structure at 3.0 Å with Glc6P and UDP-glc added (UDP-glc hydrolysed)” value [1] was “The hydrolysed glucose molecule formed multiple hydrogen bonds with the side chains of Arg211, Arg311, Glu510 and Tyr514”.

`O=P(O)(O)OC[C@H]1OC(O)[C@H](O)[C@@H](O)[C@@H]1O` (stereo partly shown) [Glc6P, glucose-6-phosphate] gave an AC50 [2] of 1500 ± 200 µM.

Molecule `OC[C@H]1O[C@H](O[C@H]2[C@H](O)[C@@H](O)[C@@H](O[C@H]3[C@H](O)[C@@H](O)[C@@H](O[C@H]4[C@H](O)[C@@H](O)[C@@H](O[C@H]5[C@H](O)[C@@H](O)[C@@H](O[C@H]6[C@H](O)[C@@H](O)[C@@H](O[C@H]7[C@H](O)[C@@H](O)C(O)O[C@@H]7CO)O[C@@H]6CO)O[C@@H]5CO)O[C@@H]4CO)O[C@@H]3CO)O[C@@H]2CO)[C@H](O)[C@@H](O)[C@@H]1O` (stereo partly shown) [maltoheptaose] has an AC50 [3] of 2400 ± 600 µM.

`OC[C@H]1O[C@H](O[C@H]2[C@H](O)[C@@H](O)[C@@H](O[C@H]3[C@H](O)[C@@H](O)[C@@H](O[C@H]4[C@H](O)[C@@H](O)C(O)O[C@@H]4CO)O[C@@H]3CO)O[C@@H]2CO)[C@H](O)[C@@H](O)[C@@H]1O` (stereo partly shown) [maltotetraose] was tested, and the “thermal shift assay (no Kd)” value [4] was “Glycogen, debranched glycogen, maltotetraose and maltoheptaose increased the thermostability of PTG(CBM21)”.

In the case of B1, the “stoichiometry N” value [5] is reported as 4.

With B2 the “stoichiometry N” value [6] was 1.

B3: binds [7].
